The values that follow come from PMC5855875, “Teixobactin analogues reveal enduracididine to be non-essential for highly potent antibacterial activity and lipid II binding” (Chemical Science, 2017).

The test system of series [1] is MRSA ATCC 33591. Nature of the series: microbe, parasite or virus in culture. As to conditions: MRSA ATCC 33591; Mueller Hinton broth (Oxoid); peptides in DMSO containing 0.002% polysorbate 80; 37°C, 24 h; triplicate. Here is the method: (§1) were grown in Mueller Hinton broth (Oxoid) in triplicate. All incubations were at 37°C. Dilutions were carried out in triplicate. 100 µl of autoclaved Mueller Hinton broth was added to wells 2-12 in a 96-well plate. 200 µl of the peptide was added to well one at a concentration of 256 µg/mL. 100µl of peptide in well one was taken up and pipetted into well two. The mixture was then mixed via pipetting before 100µl was taken up and pipetted into well three. This process was repeated up to well 11. Once […]
(§2) peptide present. Thus, the concentrations (in µg/mL) were: 256, 128, 64, 32, 16, 8, 4, 2, 1, 0.5, 0.25 and no peptide present. Each well was then inoculated with 100µl of bacteria that had been diluted to an […]
(§3) This was repeated three times. The 96-well plates were then incubated at 37°C for 24 hours. The MIC was determined to be the lowest concentration at which there was no growth visible. […]
(§4) was repeated at an altered initial concentration of 64 µg/ml. Therefore, the new concentrations for MIC […]
(§5) VIII. MIC testing (extended panel)
(§6) Bacterial cultures were grown overnight i n Mueller-Hinton Agar (MHA) plates and adjusted to a final concentration of 10 5 – 106 CFU/ml. 100 µl of inoculum in Meuller -Hinton broth (MHB) was mixed with equal volume of peptides (dissolved in MHB) at 2x their concentration in a 96 well plate. In parallel experiments, MIC values were determined in the media containing polysorbate 80 (0 .002%, v/v) to […]

For series [2], the system named is MRSA 2: MRSA DR 42412 (sputum). Kind of series: microbe, parasite or virus in culture. Here is the method:
as §5, §6
(§7) prevent non-specific adsorption of the peptides to plastic surfaces. The final peptides concentrations […]
(§8) Positive and negative controls contained 200 µl of inoculum without any peptide dissolved in broth, respectively. The 96 well plates were then incubated at 37 °C for 24 h. […]
(§9) 80. Strain information: MRSA 1: MRSA ATCC 700699, MRSA 2: MRSA DR 42412 (sputum), MRSA
(§10) 3: MRSA DM21455 (eye). […] Staphylococcus aureus ATCC

In series [3] the test system is MRSA 1: MRSA ATCC 700699. Kind of series: microbe, parasite or virus in culture. On the procedure: as §5, §6, §7
(§11) Positive and negative controls contained 200 µl of inoculum without any peptide dissolved in broth, respectively. The 96 well plates were then incubated at 37 °C for 24 h.
(§12) All the experiments were performed in two independent duplicates and the MIC was determined as the […]
(§13) Minimum bactericidal concentration
(§14) The lowest concentration in which no visible colonies could be detected was taken as the MBC.
as §9, §10

The test system of series [4] is MRSA 3: MRSA DM21455 (eye). Kind of series: microbe, parasite or virus in culture. Here is the method: as §5, §6, §7, §11, §12, §13, §14, §9, §10
Series [5] relates to Staphylococcus aureus ATCC 29213. Kind of series: microbe, parasite or virus in culture. On the procedure: as §5, §6, §7, §11, §12, §13, §14, §9, §10
Series [6] can be described thus: Lipid II TLC binding assay. Conditions: peptide : lipid II 2 : 1; 50 mM Tris/HCl, pH 7.5, 30 min, room temperature; three independent experiments. Here is the method:
X. Complex formation of teixobactin with lipid II and geranyl pyrophosphate Complex formation of teixobactin analogues 8 (Ala10-teixobactin) and 16 (Arg10-teixobactin) with lipid II and geranyl pyrophosphate was performed using TLC as described previously.7 Binding of teixobactin to lipid II and geranyl pyrophosphate was analysed by incubating 30 µL of 2 nmol of each precursor with 2 or 4 nmoles of teixobactin in 50 mM Tris/HCl, pH 7.5, for 30 min at room temperature. Complex formation was analysed by extracting unbound precursors from the reaction mixture with 30 µL n- butanol/6M pyridine acetate (pH 4.2) (2:1; vol/vol) followed by TLC analysis of the organic layer using chloroform/methanol/water/ammonia (88:48:10:1, v/v/v/v) as the solvent and detection of lipid/phosphate containing precursors by phosphomolybdic acid staining. The TLC figures represent the results obtained through thr ee independent experiments.
Figure S76 : Binding of teixobactin analogues 8 (Ala10-teixobactin ) and 16 (Arg10-teixobactin) with lipid II using the protocols described in literature .7 Partial binding is observed when the ratio of lipid II to the analogue is 1:1 (indicated by lighter spots on the TLC) and complete binding is observed when the ratio of lipid II to the analogue is 1:2 in case of analogue 16 and 1:4 in case of analogue 8 (indicated […]
(also on this page, place not known: polyso rbate vancomycin , concentr ation 80 . wer e µ l (10 1-105 10 10 previously n - TL C three S76: (Ala10-teixobactin) literature.7 Lipid II Lipid II: Compound 8 = 1:1 Lipid II: Compound 16 = 1:1 Lipid II: Compound 8 = 1:2 Lipid II: Compound 16 = 1:2 Lipid II: Compound 8 = 1:4)

The test system of series [7] is M. smegmatis ATCC 607. Kind of series: microbe, parasite or virus in culture. As to conditions: M. smegmatis ATCC 607; Middlebrook 7H9 broth with 5% ADC; 37°C, 140RPM, reading after 72 hours. On the procedure: as §1, §2, §3, §4
Middlebrook 7H9 broth (SIGMA) supplemented to 5% Middlebrook ADC (SIGMA) growth

Series [8] relates to VRE 1: VRE ATCC 700802. Kind of series: organism not typed. On the procedure:
as §5, §6, §7, §8, §9, §10

Series [9] concerns VRE 2: VRE ATCC 29212. Kind of series: organism not typed. Here is the method:
as §5, §6, §7, §8, §9, §10

Series [10] deals with rabbit erythrocytes. In kind it is cell-based. As to conditions: rabbit erythrocytes 4% v/v; peptides 0.195 – 250 µg/ml; 37°C, 1 h; haemoglobin release spectrophotometrically; average of triplicate experiments. Here is the method:
Fig. 5 Hemolytic activity of teixobactin analogues 12 and 13 for rabbit erythrocytes. The blood cells were exposed to various concentrations of peptides for 1 h and the release of haemoglobin was determined spectrophotometrically. Each value represents an average of triplicate experiments.
Cytotoxicity assay by Formazan bioreduction
Medium (DMEM) supplemented with 10% serum. The cells were repeatedly rinsed with Hank’s
in HBSS 24 hrs post-seeding.
were incubated for 3 hrs at 37°C.
XII. Haemolytic Assay Protocol
Hemolytic assay was performed

≈ marks a conversion by molar mass, not a printed value.

Regarding `CC[C@H](C)[C@H](NC(=O)[C@@H](Cc1ccccc1)NC)C(=O)N[C@@H](CO)C(=O)N[C@H](CCC(N)=O)C(=O)N[C@@H](C(=O)N[C@H](C(=O)N[C@@H](CO)C(=O)N[C@H]1C(=O)N[C@@H](C)C(=O)N[C@@H](CCCNC(=N)N)C(=O)N[C@@H]([C@@H](C)CC)C(=O)O[C@H]1C)[C@@H](C)CC)[C@@H](C)CC` [Compound 16, Arg10-teixobactin], the MIC in [1] is 2 μg mL^–1; in [2] (MRSA 2 (MRSA DR 42412, sputum, clinical isolate), Mueller Hinton broth, 37 °C, 24 h (Table 2)), 0.125 μg mL^–1; in series [3] (MRSA 1 (MRSA ATCC 700699), Mueller Hinton broth, 37 °C, 24 h (Table 2)), 1 μg mL^–1; in series [4] (MRSA 3 (MRSA DM21455, eye, clinical isolate), Mueller Hinton broth, 37 °C, 24 h (Table 2)) it was 0.5 μg mL^–1; in series [7] it was 1–2 μg mL^–1; in series [8] (VRE 1 (Enterococcus faecalis VRE ATCC 700802), Mueller Hinton broth (Table 2)), 2 μg mL^–1. The MIC in series [9] (VRE 2 (Enterococcus faecalis VRE ATCC 29212), Mueller Hinton broth (Table 2)) turned out to be 2 μg mL^–1. The “MIC (without polysorbate 80)” value amounted to 2 µg/mL (≈ 1.61 µM) in series [2] (2: DR 42412 (sputum, 24 h)); 4 µg/mL (≈ 3.21 µM) in series [3] (ATCC 700699, 24 h); 4 µg/mL (≈ 3.21 µM) in [4] (3: DM21455 (eye, 24 h)); 2 µg/mL (≈ 1.61 µM) in series [5] (ATCC 29213, 24 h); 4 µg/mL (≈ 3.21 µM) in series [8] (ATCC 700802, 24 h); 4 µg/mL (≈ 3.21 µM) in series [9] (ATCC 29212, 24 h). Besides, the MBC was found to be 0.5 μg mL^–1 in series [2] (MRSA 2 (MRSA DR 42412), plated on MHA, 37 °C, 24 h); 2 μg mL^–1 in [3] (MRSA 1 (MRSA ATCC 700699), plated on MHA, 37 °C, 24 h); 1 μg mL^–1 in [4] (MRSA 3 (MRSA DM21455), plated on MHA, 37 °C, 24 h); 1 μg mL^–1 in series [5] (Staphylococcus aureus ATCC 29213, plated on MHA, 37 °C, 24 h). In addition, the “MIC (with polysorbate 80)” value in series [2] (MRSA 2, MHB containing polysorbate 80 (0.002%, v/v), 37 °C, 24 h) was 0.125 µg/mL (≈ 0.1 µM); in series [3] (MRSA 1, MHB containing polysorbate 80 (0.002%, v/v), 37 °C, 24 h, two independent duplicates), 1 µg/mL (≈ 0.804 µM); in [4] (MRSA 3, MHB containing polysorbate 80 (0.002%, v/v), 37 °C, 24 h) it was 0.5 µg/mL (≈ 0.402 µM); in series [5] (S. aureus ATCC 29213, MHB containing polysorbate 80 (0.002%, v/v), 37 °C, 24 h), 0.25 µg/mL (≈ 0.201 µM); in series [8] (VRE 1, MHB containing polysorbate 80 (0.002%, v/v), 37 °C, 24 h) it was 2 µg/mL (≈ 1.61 µM); in [9] (VRE 2, MHB containing polysorbate 80 (0.002%, v/v), 37 °C, 24 h) it was 2 µg/mL (≈ 1.61 µM). In addition, the “lipid II spot on TLC” value in [6] is listed as “complete disappearance of the lipid II spot”.
Regarding melittin, the haemolytic activity entry in series [10] is reported as “substantial haemolytic activity”.
